Measured values taken from PMC4655872, “A quantitative assay to monitor HSV-1 ICP0 ubiquitin ligase activity in vitro” (Methods (San Diego, Calif.), 2015).
pIC50: −log10 of the molar value.

Test system: T1, GST-ICP0.241
T1 construct: gene RL2; purified from bacterial extracts; assayed with His-tagged human E1 (UBA1) and UBE2D1
Assay: near-IR western blot of ICP0 auto-ubiquitination with methylated-ubiquitin, reconstituted E1/E2/E3
Assay type: biochemical, Human alphaherpesvirus 1
Details: non-specific divalent cation chelator, not a specific ligand; E1 and UBE2D1 present, 1 mM MgCl2, 5 mM ATP, pH 7.5, 37 °C, 5 min preincubation, 60 min reaction

Compound `O=C(O)CN(CCN(CC(=O)O)CC(=O)O)CC(=O)O` [EDTA] has a pIC50 of 3.02.
